Measured values reported in patent publication US4797406A, “Amides and esters containing bridged piperidines and use as serotonin M antagonists” (Sandoz Ltd., priority 1983, dated 1989).

Assays:
[1] = biological target: T1, M receptors for serotonin (Oryctolagus cuniculus, UniProt A0A5F9C9J3); details: isolated rabbit vagus nerve; known serotonin D receptor antagonists; cited from earlier work
T1 construct: isolated rabbit vagus nerve; from tissue; host or cells: isolated rabbit vagus nerve
T1 sequence (A0A5F9C9J3 1-494): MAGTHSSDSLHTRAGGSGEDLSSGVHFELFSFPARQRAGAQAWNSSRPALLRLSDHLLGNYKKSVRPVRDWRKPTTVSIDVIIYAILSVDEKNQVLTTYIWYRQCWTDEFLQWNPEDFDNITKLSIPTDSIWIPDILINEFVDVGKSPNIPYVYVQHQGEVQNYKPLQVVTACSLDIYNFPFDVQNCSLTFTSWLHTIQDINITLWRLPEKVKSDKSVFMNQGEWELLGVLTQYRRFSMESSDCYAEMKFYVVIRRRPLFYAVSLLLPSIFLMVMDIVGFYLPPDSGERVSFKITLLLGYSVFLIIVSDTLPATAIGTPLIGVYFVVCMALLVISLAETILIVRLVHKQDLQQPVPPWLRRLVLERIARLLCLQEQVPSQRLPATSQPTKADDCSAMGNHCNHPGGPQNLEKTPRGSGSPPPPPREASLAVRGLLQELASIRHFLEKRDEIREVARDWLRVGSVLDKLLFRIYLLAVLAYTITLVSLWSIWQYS

serotonin M receptor = details: human volunteers, forearm blister; serotonin D receptor antagonists; cited from earlier work
[2] = biological target: T1, M receptors for serotonin; experiment: isolated rabbit vagus nerve test (serotonin reduction of C fibre compound action potential); details: antagonism of serotonin on C fibre action potential, read-out: pA2 in the vagus nerve test (converted)
Description: For example, in one test the action of the compounds in inhibiting the action of serotonin in reducing the amplitude of the compound action potential from the isolated rabbit vagus nerve was observed according to the principles of Riccioppo Neto, European Journal of Pharmacology (1978) 49 351-356, under conditions permitting differentation between action potentials generated in myelinatd nerve fibres (A fibres) and those generated in small non-myelinated fibres (C fibres) as described by B. Oakley and R. Schater, Experimental Neurobiology, A Laboratory Manual, University of Michigan Press, 1978, p.85 to 96. Serotonin itself exerts its effect selectively on the C-fibres progressively with dosage. This action of serotonin is not blocked by the known serotonin antagonists, metitepine, methysergide, BOL - 148, which have been said to block D receptors for serotonin, but not M receptors (see Gaddam and Picarlli, Brit.J.Pharmacol. (1957), 12, 323-328). It therefore appears that serotonin reduces the amplitude of the action potential carried by the C fibres through an effect mediated by M receptors for serotonin which are located on these nerve fibres.
The test may be effected by establishing a dose response curve for serotonin (10^-7 -5×10^-6 M) after setting up the nerve. […]

migraine attack = details: slow i.v. injection of 10 mg; reported by J. B. Hughes 1977; cited from earlier work

SMILES | block of the action of serotonin on the C fibre action potential [1] | inhibition of the algesic action of serotonin on the blister base (serotonin M receptor) | Kb [2] [µM] | other results
CC[C@@H](CO)NC(=O)[C@@H]1C=C2c3cccc4c3c(cn4C)C[C@H]2N(C)C1 [methysergide] | not blocked | – | – | –
CCN(CC)C(=O)[C@@H]1C=C2c3cccc4[nH]c(Br)c(c34)C[C@H]2N(C)C1 [BOL - 148] | not blocked | not inhibited | – | –
CCN(CC)C(=O)[C@@H]1C=C2c3cccc4[nH]cc(c34)C[C@H]2N(C)C1 [lysergic acid diethylamide] | – | not inhibited | – | –
CCN(CC)CCNC(=O)c1cc(Cl)c(N)cc1OC [metoclopramide, Metoclopramide] | – | – | 0.0501 | effect on a migraine attack (migraine attack): immediate effect
CN1C[C@H]2CCC[C@@H](C1)[C@@H]2OC(=O)c1c[nH]c2ccccc12 [Example 2] | – | – | 0.00631 | –
CSc1ccc2c(c1)C(N1CCN(C)CC1)Cc1ccccc1S2 (centres unmarked) [metitepine] | not blocked | – | – | –
